The results in this text go back to patent publication US12319655B2, “RAF kinase inhibitors and methods of use thereof” (Deciphera Pharmaceuticals, LLC, priority 2021, dated 2025).

The subject of the first assay is WM3629 cells. As to the kind of experiment: WM3629 Cell Proliferation Assay (1).
Conditions: not given
In kind it is cell-based.
Consider `Cc1ccc(NC(=O)c2ccnc(C3(C#N)CC3)c2)cc1-c1cncc(-c2cc(NC(=O)C3CC3)ncn2)c1` [Example 395], for which the IC50 is not above 100 nM.

Consider `Cc1ccc(NC(=O)c2ccnc(C(F)(F)F)c2)cc1-c1cncc(-c2cc(NC(=O)C3CC3)ncn2)c1` [Example 397], for which the IC50 is not above 100 nM.

For `Cc1ccc(NC(=O)c2ccnc(C(F)(F)F)c2)cc1-c1cccc(-c2cc(NC(=O)C3CC3)ncn2)c1` [Example 80], the IC50 was not above 100 nM.

On to `Cc1ccc(NC(=O)c2ccnc(C(C)(C)F)c2)cc1-c1cncc(-c2cc(NC(=O)C3CC3)ncn2)c1` [Example 394], for which the IC50 was not above 100 nM.

With `CCOc1ncc(-c2cc(NC(=O)c3ccnc(C(F)(F)F)c3)ccc2C)cc1-c1ccnc(C(=O)NC)c1` [Example 69], the IC50 is not above 100 nM.

Regarding `Cc1ccc(NC(=O)c2ccnc(C(C)(C)C#N)c2)cc1-c1cccc(-c2cc(NC(=O)C3CC3)ncn2)c1` [Example 77], the IC50 was not above 100 nM.

For the compound `CNC(=O)c1cc(-c2cc(-c3cc(NC(=O)c4cccc(C(F)(F)F)c4)cnc3C)ccn2)ccn1` [Example 52], the IC50 was not above 100 nM.

The next assay deals with Miapaca-2 cells. As to the kind of experiment: MiaPaca-2 Combination Cell proliferation Assay (1) with cobimetinib. The class given is cell-based. The settings on record: MiaPaca-2 cell proliferation, read-out: MiaPaca-2 Combo (1) IC50.
Consider `Cc1ccc(NC(=O)c2ccnc(C(C)(C)C#N)c2)cc1-c1ccnc(-c2ccnc(NC(=O)CC#N)c2)c1` [Example 63], for which the IC50 was in the range of 100 to 500 nM.

As for `CNC(=O)c1cc(-c2cncc(-c3cc(NC(=O)c4ccnc(C(F)(F)F)c4)ccc3C)n2)ccn1` [Example 47], the IC50 lay in the range of 100 to 500 nM.

As to `CC(=O)Nc1cc(-c2cc(-c3cc(NC(=O)c4ccnc(C(F)(F)F)c4)ccc3C)cc(OCCO)n2)ccn1` [Example 1, N-(3-(2′-acetamido-6-(2-hydroxyethoxy)-[2,4′-bipyridin]-4-yl)-4-methylphenyl)-2-(trifluoromethyl)isonicotinamide], the IC50 was not above 100 nM.

As to `COCC(=O)Nc1cc(-c2cc(-c3cc(NC(=O)c4ccnc(C(C)(C)C#N)c4)ccc3C)ccn2)ccn1` [Example 61], the IC50 was not above 100 nM.

In the case of `CNC(=O)c1cc(-c2cc(-c3cc(NC(=O)c4ccnc(C(C)(C)C#N)c4)ccc3C)ccn2)ccn1` [Example 50], the IC50 was not above 100 nM.

As for `CC(=O)Nc1cc(-c2cc(-c3cc(NC(=O)c4ccnc(C(C)(C)C#N)c4)ccc3C)nc(C)n2)ccn1` [Example 89], the IC50 was not above 100 nM.

Consider `Cc1ccc(NC(=O)c2ccnc(C(F)(F)F)c2)cc1-c1ccnc(-c2ccnc(NC(=O)C3CC3)c2)c1` [Example 54], for which the IC50 was not above 100 nM.

For `CC(=O)Nc1cc(-c2cccc(-c3cc(NC(=O)c4ccnc(C(C)(C)C#N)c4)ccc3C)c2)ncn1` [Example 79], the IC50 was not above 100 nM.

As to `Cc1ccc(NC(=O)c2ccnc(C(F)(F)F)c2)cc1-c1ccnc(-c2ccnc(NC(=O)CC#N)c2)c1` [Example 39, N-(3-(2′-(2-cyanoacetamido)-[2,4′-bipyridin]-4-yl)-4-methylphenyl)-2-(trifluoromethyl)isonicotinamide], the IC50 is 100 to 500 nM.

For `CNC(=O)c1cc(-c2cc(-c3cc(C(=O)Nc4ccnc(C(C)(C)C#N)c4)ccc3C)ccn2)ccn1` [Example 74], the IC50 was not above 100 nM.

Take `COCC(=O)Nc1cc(-c2nccc(-c3cc(NC(=O)c4ccnc(C(C)(C)C#N)c4)ccc3C)n2)ccn1` [Example 88]: the IC50 is not above 100 nM.

For the compound `Cc1ccc(NC(=O)c2ccnc(C(F)(F)F)c2)cc1-c1cccc(-c2cc(NC(=O)C3CC3)ncn2)c1` [Example 80], the IC50 was not above 100 nM.

For the compound `Cc1ccc(NC(=O)c2ccnc(C(C)(C)F)c2)cc1-c1cncc(-c2cc(NC(=O)C3CC3)ncn2)c1` [Example 394], the half-inhibitory concentration (IC50) fell in the range of 1000 to 10000 nM.

As to `CNC(=O)c1cc(-c2cncc(-c3cc(NC(=O)c4ccnc(C(C)(C)C#N)c4)ccc3C)n2)ccn1` [Example 86], the IC50 is not above 100 nM.

Turning to `Cc1ccc(NC(=O)c2ccnc(C(F)(F)F)c2)cc1-c1cccc(-c2ccnc(NC(=O)CC#N)c2)c1` [Example 62], the IC50 is 100 to 500 nM.

In the case of `CC(=O)Nc1cc(-c2cc(-c3cc(NC(=O)c4ccnc(C(F)(F)F)c4)c(F)cc3C)ccn2)ccn1` [Example 2], the IC50 is not above 100 nM.

Consider `Cc1ccc(NC(=O)c2ccnc(C(C)(C)C#N)c2)cc1-c1cccc(-c2cc(NC(=O)C3CC3)ncn2)c1` [Example 77], for which the IC50 is not above 100 nM.

On to `CC(=O)Nc1cc(-c2cc(-c3cc(NC(=O)c4ccnc(C(F)(F)F)c4)ccc3C)nc(N(C)C)n2)ccn1` [Example 41, N-(3-(6-(2-acetamidopyridin-4-yl)-2-(dimethylamino)pyrimidin-4-yl)-4-methylphenyl)-2-(trifluoromethyl)isonicotinamide], for which the IC50 is not above 100 nM.

In the case of `Cc1ccc(NC(=O)c2ccnc(C(C)(C)C#N)c2)cc1-c1cncc(-c2ccnc3c2CC(=O)N3)n1` [Example 43], the IC50 fell in the range of 100 to 500 nM.

For the compound `CNC(=O)c1cc(-c2cc(-c3cc(NC(=O)c4ccnc(C(F)F)c4)ccc3C)ccn2)ccn1` [Example 48], the IC50 was not above 100 nM.

`CNC(=O)c1cc(-c2nccc(-c3cc(NC(=O)c4ccnc(C(C)(C)C#N)c4)ccc3C)n2)ccn1` [Example 78]: the IC50 was not above 100 nM.

With `CCOc1ncc(-c2cc(NC(=O)c3ccnc(C(F)(F)F)c3)ccc2C)cc1-c1ccnc(NC(C)=O)c1` [Example 68], the IC50 is not above 100 nM.

The IC50 is the concentration that gives 50% inhibition.
